Drawing on ChEMBL document CHEMBL1139695, “Development of pyrimidine-based inhibitors of Janus tyrosine kinase 3” (Bioorg Med Chem Lett, 2006), this text covers IC50 for 1 molecule.

The subject of experiment [1] is TF-1. In words: cells. Conditions: Homo sapiens.
Description: Inhibition of IL4-induced proliferation of TF1 cells
The test system of experiment [2] is TF-1. Briefly: cells. To be noted: Homo sapiens. This is another data set of the same source.
Description: Inhibition of IL3-induced proliferation of TF1 cells

With `C[C@H](Nc1ccnc(-n2cnc3ccncc32)n1)c1ccc(F)cc1`, the IC50 in the experiment with TF-1 [1] came to 0.335 µM; in the experiment on TF-1 [2], 0.635 µM.

One may read the IC50 as the concentration that inhibits the measured activity by half. Lower therefore signals higher potency.
